Assay results from ChEMBL document CHEMBL1123949, “Molecular structure of fluoxetine hydrochloride, a highly selective serotonin-uptake inhibitor” (J Med Chem, 1988).

Columns and labels:
Rattus norvegicus [1] = species on record: Rattus norvegicus; experiment: In vitro inhibition of serotonin (5-HT) uptake in crude rat brain synaptosomes; assay type: functional, organism-based
Rattus norvegicus [2] = species on record: Rattus norvegicus; experiment: In vitro inhibition of norepinephrine (NE) uptake in crude rat brain synaptosomes; assay type: functional, organism-based
Rattus norvegicus [3] = species on record: Rattus norvegicus; experiment: In vitro inhibition of norepinephrine (NE) uptake in crude rat brain synaptosomes (% inhibition at maximum concentration)

Compound: CN[C@@H]1CCC(c2ccccc2)c2ccccc21 (stereo partly drawn)
- IC50 (Rattus norvegicus [1]): 840 nM
- IC50 (Rattus norvegicus [2]): 18 nM

Compound: CNCCC(Oc1ccc(C(F)(F)F)cc1)c1ccccc1 (stereo not drawn) [FLUOXETINE]
- IC50 (Rattus norvegicus [1]): 70 nM
- IC50 (Rattus norvegicus [3]): > 10000 nM

Compound: CNCCCOc1ccc(C(F)(F)F)cc1
- IC50 (Rattus norvegicus [1]): 3000 nM
- IC50 (Rattus norvegicus [2]): > 10000 nM

Compound: NC12CCC(c3ccccc3)(CC1)CC2
- IC50 (Rattus norvegicus [1]): 95 nM
- IC50 (Rattus norvegicus [2]): 80 nM

Compound: COc1ccc(OC[C@H]2CN(C)CC[C@@H]2c2ccccc2)cc1 [FEMOXETINE]
- IC50 (Rattus norvegicus [1]): 8.3 nM
- IC50 (Rattus norvegicus [2]): 410 nM

Compound: NC12CCC(c3ccc(Br)cc3)(CC1)CC2
- IC50 (Rattus norvegicus [1]): 680 nM
- IC50 (Rattus norvegicus [2]): 54000 nM

Compound: CC(N)C(=O)OC(C)(C)Cc1ccc(Cl)cc1 (stereo not drawn) [ALAPROCLATE]
- IC50 (Rattus norvegicus [1]): 700 nM
- IC50 (Rattus norvegicus [2]): > 34000 nM

Compound: CNCCC(Oc1ccccc1OC)c1ccccc1 (stereo not drawn) [NISOXETINE]
- IC50 (Rattus norvegicus [1]): 2000 nM
- IC50 (Rattus norvegicus [2]): 10 nM

Compound: CNCC[C@@H](Oc1ccccc1C)c1ccccc1 [ATOMOXETINE]
- IC50 (Rattus norvegicus [1]): 1500 nM
- IC50 (Rattus norvegicus [2]): 4 nM
